Data on one compound can be found in US20050209298A1, “Method of photodynamic diagnosis for vascular diseases” (HAMAMATSU PHOTONICS K.K, priority 2002, published 2005).

The test system of experiment [1] is type II collagen-induced arthritis. The experiment is described as follows: Effects of PDT on model mice with type II collagen-induced arthritis. In kind it is in vivo. The conditions noted are these: 5 mg/kg i.v. On the procedure: Test 2 (in vivo Test): Effects of PDT on Model Mice with Type II Collagen-Induced Arthritis Male DBA/1 mice, aged6 to 8 weeks and weighing 15 to 18 g, were used. Arthritis was induced by type II collagen according to the following schedule. On Day 0, 2 mg. of anti-type II collagen antibody cocktail was intraperitoneally injected. On Day 1, 2 mg of anti-type II collagen antibody cocktail was again intraperitoneally injected. On Day 2 and Day 3, 50 μg of lipopolysaccharide (LPS) was intraperitoneally injected to induce type II collagen arthritis. On Day 5, induction of type II collagen arthritis was confirmed. A test group of 5 animals and a control group of 3 animals were intravenously injected with 5 mg/kg of ATX-S10•Na. The test group was exposed to laser irradiation (dose: 30 J/cm^2) 3 hours after administration of ATX-S10•Na. […] Each animal was perfusion-fixed, and joint tissue was collected and stained with Safranin 0. The resulting decalcified tissue sample was subjected to histological analysis.

Experiment [2] relates to Human Umbilical Vein Endothelial Cells (HUVECS). The experiment is described as follows: Effects of PDT on inflamed human umbilical vein endothelial cells (MTT viability). Particulars: non-irradiated groups (0 J/cm^2); 25 or 50 μg/mL. The class given is cell-based. On the procedure: Test 1 (in vitro Test): Effects of PDT on Human Umbilical Vein Endothelial Cells (HUVECS)
As a first step, we determined if cell death of inflamed HUVECs can be induced by PDT.
HUVECs were seeded in a culture medium at […]. After a predetermined culture period, IL-1β(1 ng/mL) and TNF-α(10 ng/mL) were added to stimulate the cells and, thus, cause inflammation of the cells. After a 1-hour stimulation period, the cells were divided into two groups, and 25 μg/ml of ATX-S10•Na of the present invention was added to one group and 50 μg/ml of ATX-S10•Na to the other group. Subsequently, the cells were incubated at 37° C. for 24 hours.
After the incubation period, laser was irradiated onto the cultured cells (each dosage group was divided into five subgroups, which were irradiated at 0, 15, 30, 50, and 100 J/cm^2). 24 hours after the irradiation, the viability of HUVECs was determined by MTT assay.

The subject of experiment [3] is Keratinocytes from a patient with inflammatory keratosis. The experiment in a line: Cytotoxicity of PDT against cultured keratinocytes. The class given is cell-based, human. Particulars: 50 μg/mL; laser 10 J/cm^2; 6 hours after laser irradiation; viable cells prior to irradiation = 100%. On the procedure: FIG. 6 is a graph showing cytotoxic effects of PDT using ATX-S10•Na of the present invention on cultured keratinocytes. 50 μg/mL of ATX-S10•Na of the present invention was added to the cell culture. After a predetermined culture period, the cells were washed with PBS and were irradiated with laser at 10 J/cm^2. The viability of the keratinocytes was determined 1, 2, 3, 6, 12, and 24 hours after the irradiation and was plotted on a graph.
Test 3 (in vitro Test): Cytotoxicity Against Cultured Keratinocytes
Keratinocytes were collected from a patient with inflammatory keratosis and were cultured at 37° C. for 24 hours. To the cell culture, 50 μg/mL of ATX-S10•Na of the present invention was added and the cells were further cultured under the same conditions.
Assuming the initial number of the viable cells in the culture medium prior to laser irradiation to be 100%, the viability of the cells was determined at 1, 2, 3, 6, 12, and 24 hours after the irradiation. As shown, 75% of the keratinocytes incubated with ATX-S10•Na died 6 hours after laser irradiation.

The subject of experiment [4] is TPA-caused dermatitis. The experiment in a line: TPA-induced dermatitis in mouse skin: skin accumulation and PDT after ATX-S10•Na ointment. The class given is in vivo, mice. Particulars: 1% ointment, 3 hours. On the procedure:
Test 4 (in vivo Test): Induction of Dermatitis in Mouse Skin by Treatment with Tetradecanoyl Phorbol Acetate (TPA) and Therapeutic Effects of PDT Following Application of ATX-S10•Na Ointment Using a hydrophilic ointment base described in Japanese Pharmacopoeia, two hydrophilic ointments, one containing 1% of ATX-S10•Na and the other 10% of the compound, were prepared by a common pharmaceutical technique. Male DBA/1 mice, aged 6 to 8 weeks and weighing 15 to 18 g, were shaved with a clipper and a razor. TPA was then applied to the skin to induce dermatitis. 3) To a test group, the hydrophilic ointment containing 1% ATX-S10•Na was applied. The ointment was applied to the region of the skin where dermatitis was induced and was rinsed off after 3 hours. To a control group, an ATX-S10•Na-free hydrophilic ointment was applied and was also rinsed off after application. […] The test group was then divided into two subgroups: one group was irradiated with laser at 100 J/cm^2 and the other group was not irradiated. Skin histology of each animal was observed.

Consider `C=CC1=C(C)C2=CC3=C(/C=C/NO)C(C)(O)C(=CC4=NC(=CC5=NC(=CC1=N2)C(C)=C5CCC(=O)N[C@@H](CC(=O)[O-])C(=O)[O-])C(CCC(=O)N[C@@H](CC(=O)[O-])C(=O)[O-])=C4C)N3.[Na+].[Na+].[Na+].[Na+]` (stereo partly shown) [ATX-S10•Na], for which the “synovial infiltration (histological analysis of joint tissue)” value in experiment [1] (laser 30 J/cm^2, test group) was “synovial infiltration was suppressed”; in experiment [1] (no laser irradiation (control group)) it was “significant infiltration of synovial cells”. Moreover, in experiment [1] (no laser irradiation (control group), Day 14), the clinical arthritis score is on record as 4. Besides, in experiment [2], the “cell death of HUVECs” value is recorded as “no cell death was observed”. The keratinocytes died in experiment [3] came out at 75%. Also, the “TPA-caused dermatitis inflamed region (skin histology)” value is given as “significant decrease in the inflamed region” in experiment [4] (laser 100 J/cm^2) and “sustained” in experiment [4] (non-irradiated group).
